Consider 1 compound from PMC6078987, “Molecular insights into antibiotic resistance - how a binding protein traps albicidin” (Nature Communications, 2018).

Each structure is given as a SMILES string. Converted amounts (≈) assume the structure as drawn.

Experiment [1] addresses AlbAL (Klebsiella oxytoca, UniProt A0A9P0U153). Description: Fluorescence quenching binding assay with AlbAL. How it is done: (§1) Fluorescence quenching measurements were performed by monitoring tryptophan fluorescence of AlbAS (20 nM), AlbAL (20 nM), AlbASNTD, and AlbASCTD (100 nM) on a FluoroMax 2 spectrometer from Horiba (Potsdam, Germany). The excitation wavelength was set to λexc = 280 nm. Emission spectra were recorded from λem = 290–450 nm with a scanning speed of 1 nm s^−1 and an integration time of 1 s. The excitation and emission slit widths were set to 8 and 4 nm, respectively. Proteins were solved in 50 mM sodium phosphate buffer with 150 mM NaCl and 0.01% DMSO at pH 6.8. All measurements were performed twice and the standard deviation is given for the Kd and the Hill factor n. Data evaluation was performed by integration of the emission band (318–410 nm for AlbAS, 316–412 nm for AlbAL, and 319–390 nm for AlbASNTD and AlbASCTD) for every titration step. The area under the curve (AUC) of the buffer blank (buffer with 0.01% DMSO) was subtracted from the measured titration data. The quenching factor was determined by subtraction of AUCs for each titration step from the AUC of the protein in the absence of ligand. For determination of the AlbAS– and AlbAL–albicidin Kd values, the data were fitted to Eq. (2).2 Y=Bmax[L]^n/Kdn+[L]^n where [L], n, and Bmax denote the total ligand concentration, the Hill coefficient, and the maximum binding capacity of the protein, respectively.

The target in experiment [2] is AlbASCTD (Klebsiella oxytoca, UniProt Q8KRS7). Description: Fluorescence quenching binding assay with AlbASCTD. Conditions: AlbASCTD 100 nM, n constrained to 1. The protocol: as §1
Experiment [3] addresses T1, AlbAS (Klebsiella oxytoca, UniProt Q8KRS7).
T1 sequence (Q8KRS7 1-221): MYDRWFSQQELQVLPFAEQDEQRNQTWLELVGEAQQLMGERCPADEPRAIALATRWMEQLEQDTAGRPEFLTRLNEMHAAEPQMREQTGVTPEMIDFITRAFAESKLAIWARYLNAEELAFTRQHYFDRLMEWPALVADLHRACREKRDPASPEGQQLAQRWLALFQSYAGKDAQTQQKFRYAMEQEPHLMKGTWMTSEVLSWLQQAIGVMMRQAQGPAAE
Put plainly: 1H-15N HSQC NMR binding assay. Conditions: 15N-labeled AlbAS, 1.5-fold excess of ligand. How it is done: For binding studies with albicidin and its derivatives, each ligand was dissolved in 100% d6-DMSO and added to ^15N-labeled AlbAS or ^2H, ^15N-labeled AlbAL in 50 mM sodium hydrogen phosphate (pH 6.8), 150 mM NaCl buffer (usually 0.24 mM AlbAS or AlbAL in 85% buffer, 5% d6-DMSO, and 10% D2O) yielding a 1.5-fold excess of the ligand. After incubation for 20 min at room temperature in the dark, the sample was centrifuged at 20 000 × g for 3 min and the supernatant was transferred to a 5 mm NMR tube. The AlbAS blank sample (Supplementary Figure 14) was measured in 100% buffer without addition of ligands and DMSO. Spectra were recorded on a Bruker Avance III 700 MHz NMR spectrometer (Bruker BioSpin, Rheinstetten, Germany) with a TXI probe head. Standard Bruker pulse sequences were used. 2D ^1H-^15N HSQC spectra were recorded at 298 K with acquisition times of 90 and 22 ms for the ^1H and ^15N dimension, respectively. The experiments were accumulated with ≥16 scans depending on protein sample concentration. 2D ^1H-^15N TROSY spectra were accumulated with 256 scans and acquisition times of 90 and 22 ms for the ^1H and ^15N dimension, respectively. Several AlbAS–albicidin samples were measured with the same result and a representative spectrum is given for the figures in the main manuscript and the SI. NMR experiments with AlbAS and albicidin analogs were conducted once with accumulation of ≥16 scans depending on protein concentration. For alignment of HSQC and TROSY spectra, the TROSY spectrum was corrected by 1/2 ^1JNH in both dimensions. […]

Experiment [4] concerns the target T2, GyrBA59 (Escherichia coli, UniProt P0AES4+P0AES6).
T2 construct: combining the full-length GyrB and a C-terminally truncated GyrA segment (59 kDa); a C-terminally truncated GyrA segment (59 kDa); 6x His (TEV-cleavable) (N, cleaved yes); made in house; host or cells: E. coli BL21 DE3, pET-28a(+)
Description: DNA cleavage assay. It is filed as biochemical, E. coli. The settings on record: 5 nM – 5120 nM albicidin, pBR322, 1.4 mM ATP. How it is done: E. coli DNA gyrase cleavage assays were performed by incubating 250 ng of supercoiled pBR322 plasmid DNA (Inspiralis, Norwich, UK) with 25 nM of GyrBA59 protein in 20 µL reactions containing 35 mM Tris-HCl (pH 8.0), 24 mM KCl, 4 mM MgCl2, 2 mM DTT, 1.8 mM spermidine, 1.4 mM ATP, 6.5% (w/v) glycerol, and 0.1 mg mL^−1 bovine serum albumin in the presence or absence of various concentrations of albicidin (final concentration of 5% dimethyl sulfoxide (DMSO), incubation at 37 °C for 30 min). Linearized DNA was released by further incubation with 0.2% (w/v) SDS and 0.1 mg mL^−1 proteinase K (Promega, Madison, USA) at 37 °C for 30 min. The reaction was stopped by addition of 20 µL of reaction stop buffer (STEB buffer) (40% (w/v) sucrose, 100 mM Tris-HCl (pH 8.0), 10 mM EDTA, and 0.5 mg mL^−1 Bromophenol Blue) and precipitation using 30 µL of chloroform/isoamyl alcohol 24:1 (v:v). Samples were analyzed by electrophoresis in 1% w/v agarose gel containing 0.5 […] followed by photography under ultraviolet illumination.

Experiment [5] relates to Salmonella enteritidis. The arrangement: method as in PMID 17074789, PMID 25504839. The settings on record: cited from earlier work.
The target of experiment [6] is AlbA. The arrangement: method as in PMID 9493391. Conditions: read-out: previously reported Kd; cited from earlier work.

Chain of AlbAL (A0A9P0U153 entry or part of it): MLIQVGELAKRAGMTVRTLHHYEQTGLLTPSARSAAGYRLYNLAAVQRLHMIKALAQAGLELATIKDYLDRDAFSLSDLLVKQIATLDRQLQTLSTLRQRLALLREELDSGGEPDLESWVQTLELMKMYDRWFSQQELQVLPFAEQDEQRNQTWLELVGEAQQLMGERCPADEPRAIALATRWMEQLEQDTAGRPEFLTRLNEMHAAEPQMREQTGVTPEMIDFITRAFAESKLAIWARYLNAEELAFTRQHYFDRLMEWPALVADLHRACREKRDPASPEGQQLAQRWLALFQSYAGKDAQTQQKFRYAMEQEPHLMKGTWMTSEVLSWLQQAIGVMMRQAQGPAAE
T2 sequence (P0AES4 whole entry, looked up, other chains not shown, the tested form may be a part): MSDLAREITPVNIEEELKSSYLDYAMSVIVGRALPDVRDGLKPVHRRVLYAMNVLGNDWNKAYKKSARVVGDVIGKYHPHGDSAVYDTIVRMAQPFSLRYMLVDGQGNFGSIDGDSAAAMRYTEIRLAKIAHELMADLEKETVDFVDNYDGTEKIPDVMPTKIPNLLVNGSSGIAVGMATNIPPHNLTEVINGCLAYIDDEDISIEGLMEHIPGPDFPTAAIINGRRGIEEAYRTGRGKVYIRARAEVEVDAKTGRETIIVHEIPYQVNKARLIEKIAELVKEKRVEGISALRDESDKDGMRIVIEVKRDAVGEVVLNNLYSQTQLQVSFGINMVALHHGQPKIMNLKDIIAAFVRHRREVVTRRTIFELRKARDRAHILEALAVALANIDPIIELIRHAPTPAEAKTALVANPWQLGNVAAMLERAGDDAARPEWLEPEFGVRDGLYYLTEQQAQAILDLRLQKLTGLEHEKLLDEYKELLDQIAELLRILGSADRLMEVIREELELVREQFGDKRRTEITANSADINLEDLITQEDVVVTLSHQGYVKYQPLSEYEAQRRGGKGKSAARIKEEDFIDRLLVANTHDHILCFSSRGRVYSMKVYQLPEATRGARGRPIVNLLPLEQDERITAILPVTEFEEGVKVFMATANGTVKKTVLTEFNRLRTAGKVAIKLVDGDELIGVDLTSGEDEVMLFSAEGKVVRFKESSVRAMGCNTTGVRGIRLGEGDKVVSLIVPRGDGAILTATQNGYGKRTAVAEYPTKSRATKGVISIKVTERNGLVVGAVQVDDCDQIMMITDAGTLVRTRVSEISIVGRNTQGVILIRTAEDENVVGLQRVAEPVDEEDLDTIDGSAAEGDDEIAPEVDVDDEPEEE

As for `COc1c(NC(=O)c2ccc(NC(=O)c3ccc(NC(=O)[C@H](CC#N)NC(=O)c4ccc(NC(=O)/C(C)=C/c5ccc(O)cc5)cc4)cc3)c(OC)c2O)ccc(C(=O)O)c1O` [albicidin], the Kd in experiment [1] is 7.4 ± 0.9 nM; in experiment [2] it was 600 ± 100 nM; in experiment [6], 64 nM. Also, the “Hill coefficient, n” value in experiment [1] (AlbAL 20 nM, fluorescence quenching) is recorded as 2.0 ± 0.2. Also, in experiment [3], the “binding to AlbAS by HSQC signal pattern (in words)” value is “strong ligand binding in the nM–pM range”. Moreover, in experiment [4], the “stabilization of DNA cleavage complex (in words)” value is on record as “stabilizing the cleavage complex”. In addition, in experiment [5], the minimum inhibitory concentration (MIC) was 0.5 µg/mL (≈ 0.593 µM).

A word on the Kd: it is a measure of binding affinity in units of concentration. What is called MIC is the least concentration at which growth counts as inhibited.
